Literature values, collected in patent publication US20090082349A1, “THIAZOLONES FOR USE AS PI3 KINASE INHIBITORS” (priority 2006, published 2009).
Like-named read-outs stand apart in the source and are kept apart here.

Legend:
[1] = test system: Class I PI3-kinases; conditions: each of the four Class I PI3-kinases
[2] = biological target: CK2 protein kinase (Homo sapiens, UniProt P68400)
Sequence of CK2 protein kinase (P68400 whole entry): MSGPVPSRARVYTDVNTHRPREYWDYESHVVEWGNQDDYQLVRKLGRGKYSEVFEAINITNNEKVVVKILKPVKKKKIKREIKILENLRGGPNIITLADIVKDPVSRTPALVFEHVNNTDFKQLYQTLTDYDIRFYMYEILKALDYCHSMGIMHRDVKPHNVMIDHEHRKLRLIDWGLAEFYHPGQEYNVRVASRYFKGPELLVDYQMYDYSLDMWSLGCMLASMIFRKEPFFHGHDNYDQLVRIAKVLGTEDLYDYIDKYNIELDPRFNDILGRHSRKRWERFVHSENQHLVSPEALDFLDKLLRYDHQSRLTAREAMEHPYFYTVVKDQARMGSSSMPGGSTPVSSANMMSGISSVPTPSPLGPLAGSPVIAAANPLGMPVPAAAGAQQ

Row | SMILES | IC50 ([1]; Fruman et al. 1998, read-out: IC50 against each of these PI3-kinases) [µM] | IC50 [2] [µM] | IC50 ([1]; read-out: IC50 against each of the various Class I PI3-kinases) [µM]
1 | O=c1cc(N2CCOCC2)oc2c(-c3ccccc3)cccc12 [LY294002] | 15 to 20 | 5 to 10 | 
2 | COC[C@H]1OC(=O)c2coc3c2[C@@]1(C)C1=C(C3=O)[C@@H]2CCC(=O)[C@@]2(C)C[C@H]1OC(C)=O [wortmannin] |  |  | 0.001 to 0.01
